From US6737383B1, “Herbicidal oxadiazolidines” (priority 1999, dated 2004)

What was measured:
wild oat = experiment: Test B pre/postemergence wild oat; format: in vivo, Avena fatua
Outline: (§1)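 Test chemicals in a non-phytotoxic solvent mixture with surfactant were sprayed preemergence onto planted seeds and postemergence onto plants 2 to 18 cm tall (1- to 4-leaf stage). After twelve to sixteen days in a greenhouse, injury was visually rated against untreated controls from 0 (no effect) to 10 (complete control).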

pigweed = experiment: Test B pre/postemergence pigweed; format: in vivo, Amaranthus retroflexus
Outline: as §1

wheat = experiment: Test B pre/postemergence wheat; format: in vivo, Triticum aestivum
Outline: as §1

surinam grass = experiment: Test B pre/postemergence surinam grass; format: in vivo, Brachiaria decumbens
Outline: as §1

purple nutsedge = experiment: Test B pre/postemergence purple nutsedge; format: in vivo, Cyperus rotundus
Outline: as §1

sugar beet = experiment: Test B pre/postemergence sugar beet; format: in vivo, Beta vulgaris
Outline: as §1

crabgrass = experiment: Test B pre/postemergence crabgrass; format: in vivo, Digitaria sanguinalis
Outline: as §1

soybean = experiment: Test B pre/postemergence soybean; format: in vivo, Glycine max
Outline: as §1

blackgrass = experiment: Test B pre/postemergence blackgrass; format: in vivo, Alopecurus myosuroides
Outline: as §1

cocklebur = experiment: Test B pre/postemergence cocklebur; format: in vivo, Xanthium strumarium
Outline: as §1

rape = experiment: Test B pre/postemergence rape; format: in vivo, Brassica napus
Outline: as §1

corn = experiment: Test B pre/postemergence corn; format: in vivo, Zea mays
Outline: as §1

morningglory = experiment: Test B pre/postemergence morningglory; format: in vivo, Ipomoea hederacea
Outline: as §1

velvetleaf = experiment: Test B pre/postemergence velvetleaf; format: in vivo, Abutilon theophrasti
Outline: as §1

giant foxtail = experiment: Test B pre/postemergence giant foxtail; format: in vivo, Setaria faberii
Outline: as §1

bedstraw = experiment: Test B pre/postemergence bedstraw; format: in vivo, Galium aparine; conditions: Preemergence
Outline: as §1

[1] = Postemergence, Rate 62 g/ha, scale of 0 to 10, 0 is no effect, 10 is complete control
[2] = Postemergence, Rate 500 g/ha, scale of 0 to 10 where 0 is no effect and 10 is complete control
[3] = Preemergence, Rate 62 g/ha, scale 0 to 10 (0 no effect, 10 complete control)
[4] = Preemergence, Rate 125 g/ha, scale 0 to 10, 0 is no effect, 10 is complete control
[5] = Preemergence, Rate 500 g/ha, scale of 0 to 10 where 0 is no effect and 10 is complete control
[6] = Rate 250 g/ha, Postemergence, scale of 0 to 10 where 0 is no effect and 10 is complete control
[7] = Postemergence, Rate 125 g/ha, scale 0 to 10, 0 is no effect, 10 is complete control

CC(C)N(C(=O)n1oc(=O)n(CCC(F)=C(F)F)c1=O)c1ccccc1 [Compound 566]
4: Plant response rating, Wild oats (wild oat; [2]) | Plant response rating, Wheat (wheat; [2]) | Sugarbeets plant response rating (sugar beet; [4]) | Soybean plant response rating (soybean; [1])
6: Wheat plant response rating (wheat; [4]) | Wheat plant response rating (0 to 10 scale) (wheat; Preemergence, Rate 250 g/ha) | Sugarbeets plant response rating (0 to 10 scale) (sugar beet; Preemergence, Rate 250 g/ha) | Sugarbeets plant response rating (sugar beet; [5]) | Plant response rating, Soybean (soybean; [2]) | Plant response rating, Soybean (soybean; [6]) | Plant response rating, Blackgrass (blackgrass; [2]) | Plant response rating, Morningglory (morningglory; [6])
9: Wild oats plant response rating (wild oat; [4]) | Redroot pigweed plant response rating (pigweed; [4]) | Redroot pigweed plant response rating (0 to 10 scale) (pigweed; Preemergence, Rate 250 g/ha) | Plant response rating, B. signalgrass (surinam grass; [2]) | B. signalgrass plant response rating (surinam grass; [3]) | B. signalgrass plant response rating (surinam grass; [4]) | B. signalgrass plant response rating (surinam grass; [5]) | Plant response rating, Crabgrass (crabgrass; [2]) | Crabgrass plant response rating (crabgrass; [3]) | Crabgrass plant response rating (crabgrass; [4]) | Crabgrass plant response rating (0 to 10 scale) (crabgrass; Preemergence, Rate 250 g/ha) | Blackgrass plant response rating (blackgrass; [4]) | Plant response rating, Rape (rape; [2]) | Plant response rating, Rape (rape; [6]) | Corn plant response rating (corn; [5]) | Plant response rating, Giant foxtail (giant foxtail; [2]) | Giant foxtail plant response rating (giant foxtail; [3])
5: Plant response rating, Redroot pigweed (pigweed; [2]) | Plant response rating, Sugarbeets (sugar beet; [2]) | Morningglory plant response rating (morningglory; [1]) | Morningglory plant response rating (morningglory; [7]) | Plant response rating, Velvetleaf (velvetleaf; [2]) | Plant response rating, Velvetleaf (velvetleaf; [6])
3: Wild oats plant response rating (wild oat; [3]) | Redroot pigweed plant response rating (pigweed; [1]) | Blackgrass plant response rating (blackgrass; [3]) | Plant response rating, Blackgrass (blackgrass; [6]) | Plant response rating, Cocklebur (cocklebur; [2]) | Velvetleaf plant response rating (velvetleaf; [1])
0: Wild oats plant response rating (wild oat; [1]) | Plant response rating, Wild oats (wild oat; [6]) | Redroot pigweed plant response rating (pigweed; [3]) | Wheat plant response rating (wheat; [1]) | Wheat plant response rating (wheat; [3]) | Plant response rating, Wheat (wheat; [6]) | Nutsedge plant response rating (purple nutsedge; [1]) | Nutsedge plant response rating (purple nutsedge; [7]) | Plant response rating, Nutsedge (purple nutsedge; [2]) | Nutsedge plant response rating (purple nutsedge; [3]) | Nutsedge plant response rating (purple nutsedge; [4]) | Nutsedge plant response rating (0 to 10 scale) (purple nutsedge; Preemergence, Rate 250 g/ha) | Nutsedge plant response rating (purple nutsedge; [5]) | Sugarbeets plant response rating (sugar beet; [1]) | Sugarbeets plant response rating (sugar beet; [3]) | Soybean plant response rating (soybean; [3]) | Soybean plant response rating (soybean; [4]) | Soybean plant response rating (0 to 10 scale) (soybean; Preemergence, Rate 250 g/ha) | Soybean plant response rating (soybean; [5]) | Blackgrass plant response rating (blackgrass; [1]) | Cocklebur plant response rating (cocklebur; [3]) | Cocklebur plant response rating (cocklebur; [4]) | Cocklebur plant response rating (0 to 10 scale) (cocklebur; Preemergence, Rate 250 g/ha) | Cocklebur plant response rating (cocklebur; [5]) | Rape plant response rating (rape; [1]) | Rape plant response rating (rape; [7]) | Rape plant response rating (rape; [3]) | Rape plant response rating (rape; [4]) | Corn plant response rating (corn; [1]) | Corn plant response rating (corn; [7]) | Corn plant response rating (corn; [3]) | Morningglory plant response rating (morningglory; [3]) | Morningglory plant response rating (morningglory; [4]) | Morningglory plant response rating (0 to 10 scale) (morningglory; Preemergence, Rate 250 g/ha) | Morningglory plant response rating (morningglory; [5]) | Velvetleaf plant response rating (velvetleaf; [3]) | Velvetleaf plant response rating (velvetleaf; [4]) | Velvetleaf plant response rating (0 to 10 scale) (velvetleaf; Preemergence, Rate 250 g/ha) | Giant foxtail plant response rating (giant foxtail; [1]) | Bedstraw plant response rating (bedstraw; Rate 62 g/ha, scale 0 to 10 (0 no effect, 10 complete control)) | Bedstraw plant response rating (bedstraw; Rate 125 g/ha, scale 0 to 10, 0 is no effect, 10 is complete control) | Bedstraw plant response rating (0 to 10 scale) (bedstraw; Rate 250 g/ha) | Bedstraw plant response rating (bedstraw; Rate 500 g/ha, scale of 0 to 10 where 0 is no effect and 10 is complete control)
2: B. signalgrass plant response rating (surinam grass; [1]) | Crabgrass plant response rating (crabgrass; [1]) | Blackgrass plant response rating (blackgrass; [7]) | Cocklebur plant response rating (cocklebur; [1]) | Cocklebur plant response rating (cocklebur; [7]) | Plant response rating, Cocklebur (cocklebur; [6]) | Plant response rating, Corn (corn; [2]) | Corn plant response rating (corn; [4]) | Corn plant response rating (0 to 10 scale) (corn; Preemergence, Rate 250 g/ha) | Plant response rating, Corn (corn; [6]) | Velvetleaf plant response rating (velvetleaf; [5])
10: Wild oats plant response rating (wild oat; [5]) | Redroot pigweed plant response rating (pigweed; [5]) | B. signalgrass plant response rating (0 to 10 scale, 0 is no effect, 10 is complete control) (surinam grass; Preemergence, Rate 250 g/ha) | Crabgrass plant response rating (crabgrass; [5]) | Plant response rating, Crabgrass (crabgrass; [6]) | Blackgrass plant response rating (0 to 10 scale) (blackgrass; Preemergence, Rate 250 g/ha) | Blackgrass plant response rating (blackgrass; [5]) | Rape plant response rating (rape; [5]) | Plant response rating, Morningglory (morningglory; [2]) | Giant foxtail plant response rating (giant foxtail; [4]) | Giant foxtail plant response rating (0 to 10 scale) (giant foxtail; Preemergence, Rate 250 g/ha) | Giant foxtail plant response rating (giant foxtail; [5])
8: Wild oats plant response rating (0 to 10 scale) (wild oat; Preemergence, Rate 250 g/ha) | B. signalgrass plant response rating (surinam grass; [7]) | Plant response rating, B. signalgrass (surinam grass; [6]) | Crabgrass plant response rating (crabgrass; [7]) | Giant foxtail plant response rating (giant foxtail; [7]) | Plant response rating, Giant foxtail (giant foxtail; [6])
7: Wheat plant response rating (wheat; [5]) | Rape plant response rating (0 to 10 scale) (rape; Preemergence, Rate 250 g/ha)
